What all share (type): in vivo
The subject of test [1] is rat model of inflammatory pain. Nature of the test: Inflammatory mechanical hyperalgesia (FCA, Randal-Sellito paw withdrawal threshold). Conditions: for maximal reversal of mechanical hyperalgesia: ipsilateral paw, 24 h after FCA. The procedure: Mechanical hyperalgesia was examined in a rat model of inflammatory pain. Paw withdrawal thresholds to an increasing pressure stimulus were measured by the Randal-Sellito technique using an analgesymeter (Ugo Basile, Milan), in naïve animals prior to an intraplantar injection of complete Freund's complete adjuvant (FCA) into the left hind paw. 24 h later paw withdrawal thresholds were measured again prior to (predose) and then from 10 min to 6 h following drug or vehicle administration. Reversal of hyperalgesia in the ipsilateral paw was calculated according to the formula: [formula]
(§1) All experiments were carried out using groups of 6 animals. Stock concentrations of drugs were dissolved in distilled water and subsequent dilutions were made in 0.9% saline for subcutaneous administration in a volume of 4 mlkg^−1. All drugs were made up in plastic vials and kept in the dark.
(§2) Statistical analysis was carried out on withdrawal threshold readings (g) using ANOVA with repeated measures followed by Tukey's HSD test. Efficacy refers to the maximal reversal of hyperalgesia observed at the doses used.

For test [2], the system named is rat model of neuropathic pain. Nature of the test: Neuropathic mechanical hyperalgesia (partial ligation of the left sciatic nerve). The protocol:
Mechanical hyperalgesia was examined in a rat model of neuropathic pain induced by partial ligation of the left sciatic nerve. Approximately 14 days following surgery mechanical withdrawal thresholds of both the ligated (ipsilateral) and non-ligated (contralateral) paw were measured prior to (predose) and then from 10 min to 6 h following drug or vehicle administration. Reversal of hyperalgesia at each time point was calculated according to the formula: [formula]
as §1, §2

Test [3] concerns rat model of bone cancer pain. In words: Rat model of bone cancer pain (intra-tibial MRMZ1 mammary gland carcinoma cells). The procedure:
Adult female rats were given intra-tibial injections of MRMZ1 rat mammary gland carcinoma cells (3 μl, 10^7 cells/ml). These animals gradually developed mechanical hyperalgesia, mechanical allodynia (skin sensitivity to non-noxious stimuli) and hind limb sparing, beginning on day 12-14 following cell injection.

Setting [4] is: 10 and 30 μg/kg s.c. 3 times a week from the day of cell injection.

This is an account of results in patent US20040063670A1, “Use of bisphosphonates for pain treatment” (priority 2000, published 2004).

Take `O=P(O)(O)C(Cl)(Cl)P(=O)(O)O` [Clodronate, 1,1-dichloromethane-1,1-diphosphonic acid]: the “reversing inflammatory mechanical hyperalgesia” value in test [1] (0.3-10 mgkg^−1 s.c.) is reported as “ineffective”. Moreover, in test [1] (highest dose tested of 0.3-10 mgkg^−1 s.c.), the paw withdrawal thresholds entry is on record as “slight reductions”. Also, in test [2] (0.3-10 mgkg^−1 s.c.), the “activity in the model of neuropathic pain (reversal of hyperalgesia)” value was “inactive” and the “contralateral paw withdrawal thresholds” value is given as “some reductions”.
Turning to `NCCC(O)(P(=O)(O)O)P(=O)(O)O` [Pamidronate, 3-amino-1-hydroxypropane-1,1-diphosphonic acid], in test [1] (0.03-1 mgkg^−1 s.c.), the “reversing inflammatory mechanical hyperalgesia” value is given as “ineffective”. In addition, the paw withdrawal thresholds entry in test [1] (highest dose tested of 0.03-1 mgkg^−1 s.c.) was “slight reductions”. In test [2] (0.03-1 mgkg^−1 s.c.), the “contralateral paw withdrawal thresholds” value was “some reductions” and the “maximal reversal of hyperalgesia” value is recorded as 20%.
With `O=P(O)(O)C(O)(Cn1ccnc1)P(=O)(O)O` [Zoledronate, 1-hydroxy-2-(imidazol-1-yl)ethane-1,1-diphosphonic acid], in test [1] (0.003-0.1 mgkg^−1 s.c.), the “time to maximal reversal of mechanical hyperalgesia” value was no more than 30 min and the “maximal reversal of mechanical hyperalgesia” value was 100%. In addition, the “activity 3 h following administration (duration)” value in test [1] (0.003-0.1 mgkg^−1 s.c., 3 h after administration) is “no significant activity”. Further, in test [1] (0.003-0.1 mgkg^−1 s.c., listed as zoledronic acid), the “maximal reversal of mechanical hyperalgesia” value was “about 100%”. Moreover, in test [1] (highest dose of 0.003-0.1 mgkg^−1 s.c., contralateral paw), the contralateral activity entry is “Some contralateral activity”. In addition, in test [2] (0.003-0.1 mgkg^−1 s.c.), the “time to maximal reversal of mechanical hyperalgesia” value is given as no more than 30 min. For the same compound, the “reversal of mechanical hyperalgesia (maximal)” value in test [2] (0.003-0.1 mgkg^−1 s.c., about 14 days after surgery) came out at 40%. In test [2] (highest dose of 0.003-0.1 mgkg^−1 s.c.), the “contralateral paw withdrawal thresholds” value is recorded as “significant reduction”. In test [3] (setting [4]), the hind limb sparing entry is given as “profound inhibition” and the mechanical allodynia result was “profound inhibition”. Besides, the “development of hind limb sparing over 19 days” value in test [3] (higher dose (30 μg/kg s.c. 3 times a week), 19 days following intra-tibial cell injection) is “did not develop any sign of hind limb sparing”. Besides, in test [3] (single injection 100 μg/kg s.c. on day 19), the “acute effect of a single injection” value is recorded as “no acute effect”.
For the compound `CN1CC[C@]23c4c5ccc(O)c4O[C@H]2[C@@H](O)C=C[C@H]3[C@H]1C5` [morphine], the mechanical allodynia entry in test [3] (acute treatment, 1-10 mg/kg s.c.) is given as “dose dependent reduction”. Further, the hind limb sparing entry in test [3] (acute treatment, highest dose only (of 1-10 mg/kg s.c.)) is recorded as “significant reduction”.
